test system: pERK1/2(THR202/TYR204) level in AsPC-1 cells; experiment: pERK assay (HTRF) in AsPC-1 cell line; format: cell-based; details: Homo sapiens, ASPC1, 2 h, 2 h compound treatment
In short: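 AsPC-1 (KRAS G12D) cells, 30000/well, seeded overnight, then treated 2 h with a 10-point series at 0 to 10 μM final. Lysate pERK1/2 (Thr202/Tyr204) detected by HTRF after overnight antibody incubation at room temperature; IC50 from percent inhibition versus log concentration.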

First: CC12CC(COc3nc(N4CC5CCC(C4)N5)c4ccc(-c5cc(O)cc6ccccc56)c(F)c4n3)(CO1)C2 [Example 42, 4-(4-(3,8-diazabicyclo[3.2.1]octan-3-yl)-8-fluoro-2-((1-methyl-2-oxabicyclo[2.1.1]hexan-4-yl)methoxy)quinazolin-7-yl)naphthalen-2-ol]
Second: N#Cc1c(N)sc2c(F)ccc(-c3c(C(F)(F)F)cc4c(N5CC6CCC(C5)N6)nc(OCC56COC(COC7CC7)(C5)C6)nc4c3F)c12 [Example 47, 4-(4-(3,8-diazabicyclo[3.2.1]octan-3-yl)-2-((1-(cyclopropoxymethyl)-2-oxabicyclo[2.1.1]hexan-4-yl)methoxy)-8-fluoro-6-(trifluoromethyl)quinazolin-7-yl)-2-amino-7-fluorobenzo[b]thiophene-3-carbonitrile]
The IC50 of the first is 28-fold higher: 4.34 µM for the first, 0.154 µM for the second. The second is the more potent here.

Going from N#Cc1c(N)sc2c(F)ccc(-c3c(C(F)(F)F)cc4c(N5CC6CCC(C5)N6)nc(OCC5(C(F)F)CCOCC5)nc4c3F)c12 [Example 43, 4-(4-(3,8-diazabicyclo[3.2.1]octan-3-yl)-2-((4-(difluoromethyl)tetrahydro-2H-pyran-4-yl)methoxy)-8-fluoro-6-(trifluoromethyl)quinazolin-7-yl)-2-amino-7-fluorobenzo[h]thiophene-3-carbonitrile] to N#Cc1c(N)sc2c(F)ccc(-c3c(C(F)(F)F)cc4c(N5CC6CCC(C5)N6)nc(OCC5(CO)CCOCC5)nc4c3F)c12 [Example 50, 4-(4-(3,8-diazabicyclo[3.2.1]octan-3-yl)-8-fluoro-2-((4-(hydroxymethyl)tetrahydro-2H-pyran-4-yl)methoxy)-6-(trifluoromethyl)quinazolin-7-yl)-2-amino-7-fluorobenzo[b]thiophene-3-carbonitrile], the IC50 falls from 0.479 µM to 0.193 µM (2.5-fold). The second is the more potent here.

Going from N#Cc1c(N)sc2c(F)ccc(-c3c(C(F)(F)F)cc4c(N5CC6CCC(C5)N6)nc(OCC5(F)COC5)nc4c3F)c12 [Example 44, 4-(4-(3,8-diazabicyclo[3.2.1]octan-3-yl)-8-fluoro-2-((3-fluorooxetan-3-yl)methoxy)-6-(trifluoromethyl)quinazolin-7-yl)-2-amino-7-fluorobenzo [b]thiophene-3-carbonitrile] to N#Cc1c(N)sc2c(F)ccc(-c3c(C(F)(F)F)cc4c(N5CC6CCC(C5)N6)nc(OCC5(C#N)COC5)nc4c3F)c12 [Example 49, 3-(((7-(2-amino-3-cyano-7-fluorobenzo[b]thiophen-4-yl)-4-(3,8-diazabicyclo[3.2.1]octan-3-yl)-8-fluoro-6-(trifluoromethyl)quinazolin-2-yl)oxy)methyl)oxetane-3-carbonitrile], the IC50 falls from 0.211 µM to 0.103 µM (2-fold).

COC1(COc2nc(N3CC4CCC(C3)N4)c3cc(C(F)(F)F)c(-c4ccc(F)c5sc(N)c(C#N)c45)c(F)c3n2)CC1 [Example 45, 4-(4-(3,8-diazabicyclo[3.2.1]octan-3-yl)-8-fluoro-2-((1-methoxycyclopropyl)methoxy)-6-(trifluoromethyl)quinazolin-7-yl)-2-amino-7-fluorobenzo[b] thiophene-3-carbonitrile] and N#CCC1(COc2nc(N3CC4CCC(C3)N4)c3cc(C(F)(F)F)c(-c4ccc(F)c5sc(N)c(C#N)c45)c(F)c3n2)COC1 [Example 51, 4-(4-(3,8-diazabicyclo[3.2.1]octan-3-yl)-2-((3-(cyanomethyl)oxetan-3-yl)methoxy)-8-fluoro-6-(trifluoromethyl)quinazolin-7-yl)-2-amino-7-fluoro benzo[b]thiophene-3-carbonitrile] are within 1.5-fold of each other in IC50: 0.115 µM for the first, 0.142 µM for the second.

In the case of CC1(COc2nc(N3CC4CCC(C3)N4)c3cc(C(F)(F)F)c(-c4ccc(F)c5sc(N)c(C#N)c45)c(F)c3n2)CN(c2ncco2)C1 [Example 46, 4-(4-(3,8-diazabicyclo[3.2.1]octan-3-yl)-8-fluoro-2-((3-methyl-1-(oxazol-2-yl)azetidin-3-yl)methoxy)-6-(trifluoromethyl)quinazolin-7-yl)-2-amino-7-fluorobenzo[b]thiophene-3-carbonitrile], the IC50 is reported as 0.222 µM.
